Ends that are not written are not given here.
Tests used:
[1] = system: MDA-MB-468 cells; test: soft agar colony formation (anchorage-independent growth) of MDA-MB-468 cells; type: cell-based, human; settings: 10 nM, positive control
[2] = system: EGFR; test: EGFR binding competition assay with iodinated EGF in MDA-MB-468 cells; set-up: species or system human; settings: 1 nM iodinated EGF, peptide 0.6, 6, 60 μM
Protocol: FIG. 6A: EGFR binding competition assays were performed in MDA-MB-468 cells. In brief, 150,000 cells/well were plated in 24 well plate. The binding assays were performed as described by Lonardo, et al., Mol. Cell. Biol, 2:992 (1990). In brief, 1 nM iodinated EGF (Amersham) was incubated with increasing concentrations of RL2 or RL2-K (0.6, 6, 60 μM, respectively). Increasing concentrations of unlabelled EGF were used as control, as shown in the insert. Each group was assayed in triplicate. Values are from three experiments and expressed as the mean percent of control cases.
(§1) To explore whether the RL2 peptide could specifically represent either a p185^erbB-2 or EGFR-extracellular binding site, we tested the aforementioned peptides in p185^erbB-2 or EGFR binding competition assays. Since iodinated gp30 was not available, p185^erbB-2 and EGFR competition assays were performed using iodinated monoclonal antibody 4D5 and iodinated EGF respectively. p185^erbB-2 monoclonal antibodies 4D5 and 7C2 were provided by Genentech, Inc., South San Francisco, Calif.
Among the peptides tested, only RL2 displaced in a dose-dependent manner (B/T 50: 8 μM) the binding of iodinated 4D5 to SK-Br-3 (FIG. 2).

[3] = system: MDA-MB-453 cells; test: soft agar colony formation (anchorage-independent growth) of MDA-MB-453 cells; type: cell-based, human; settings: for Number of Colonies (± SD): MDA-MB 453 cells, untreated 942 ± 120
Protocol: (§2) MDA-MB-453 (A), or SK-Br-3 cells (B) were plated in 35 mm tissue culture dishes (Costar). A bottom layer of 1 ml IMEM containing 0.6% Bacto-agar (Difco), 2 mM glutamine, and 10% FCS was prepared. Top layers contained 2×10^4 cells and samples in 0.4% Bacto-agar, 10% FCS IMEM. Samples were sterilized prior to plating by filtration using 0.22 μM Millex CU millipore filter. The legend of peptide symbols in A is identical to the one in FIG. 2. The following concentrations were used in B: 5×10^-12 M gp30, 2×10^-12 M p75, 60 μM RL2, and 127 nM p185^erbB-2 extracellular domain (ECD) as positive control. Experiments were carried out in FCS that had been tested for optimal cloning efficiency. Cells were incubated 7-9 days in humidified 5% CO2 atmosphere at 37° C. Colonies larger than 60-μm were counted using a Baush and Lomb Stem Cell Colony Counter (Artex Systems Corp.). Each group was assayed in triplicate. Experiments were performed three times.
*Cells were treated as indicated. The monoclonal antibody 4D5 (kindly
provided by Genentech, CA) and the RL2 peptide were used as positive
controls. Soft agar cloning assays were carried out as previously
described (Lupu, et al., Proc. Natl. Acad. Sci. USA, 87:2287-91, 1992).
Colonies larger than 69 μM were counted using a Baush & Lomb Stem Cell
Colony Counter (Artex Systems Corp.). Each group was assayed in
triplicate. Experiments were performed three times with similar results.

[4] = system: SK-Br-3 cells; test: soft agar colony formation of SK-Br-3 cells with gp30 or p75; type: cell-based, human; settings: 5×10^-12 M gp30 or 2×10^-12 M p75; 60 μM RL2, 127 nM ECD
Protocol: as §2
To illustrate RL2 antiproliferative effects as a blocking action on the p185^erbB-2 ligand-mediated effects, we tested this peptide and the ECD of p185^erbB-2 on the anchorage-independent growth of SK-Br-3 cells in the presence of stimulating concentrations of either gp30 or p75 proteins, the latter known to interact exclusively with p185^erbB-2 (Lupu, et al., Proc. Natl. Acad. Sci. USA, 89:2287-91 (1992)). […]

[5] = system: p185^erbB-2; test: in vitro tyrosine phosphorylation assay in MDA-MB-453 cells; type: cell-based, human; settings: 0.06 to 60 μM, gp30 50 pM
Protocol: Cells were grown in 24-well plates (Costar) to 70% confluence in 5% FCS IMEM and serum-starved 24 hours prior to assays. Cells were then treated for 20 minutes at 37° C. with RL1 or RL2 with and without gp30 (at concentrations given below), as indicated on Figure panels, washed once with serum-free IMEM, and lysed at 4° C. for 10 minutes with a lysis buffer containing SDS (Emprotech). Total cellular proteins were subjected to 4-20% SDS-PAGE, and blotted onto Hybond-ECL membranes (Amersham). Membranes were blocked with tris-buffered saline [5% BSA, 0.5% Tween 20] and probed with 1 μg/ml phosphotyrosine monoclonal antibody (UBI) in tris-buffered saline [0.5% BSA, 0.5% Tween 20]. Immune complexes were detected using the ECL-western blotting kit (Amersham) as indicated by the manufacturer. […] The values obtained were corrected for background and expressed as control percentages. […]
(§3) To further characterize RL2 blocking effects, we analyzed the homologous peptides for their ability to prevent the tyrosine phosphorylation induced by gp30 either in p185^erbB-2 or EGFR, or both of them. […] (Densitometric analyses of autoradiograms were performed using a SAMBA 4000 system (Dynatech Laboratories). The values obtained were corrected for background and expressed as control percentages. Differences were considered significant when effects more than 10% versus controls occurred.)

[6] = system: p185^erbB-2; test: in vivo phosphorylation assay and phosphoaminoacid analysis in MDA-MB-453 cells; type: cell-based, human
Protocol: MDA-MB-453 cells were grown in 35 mm dishes (Costar) to 70% confluence in 5% FCS IMEM. Cells were washed twice with PO4 free DMEM (Gibco), and then incubated for 3 hours at 37° C. with [^32 P]-orthophosphate (Amersham; 1.0 mCi/ml in each dish). Cells were then treated for 10 minutes at 37° C. with samples: control, 60 μM RL2, 50×10^-12 M gp30, or 50×10^-12 M gp30 plus 60 μM RL2. All samples were preincubated 30 minutes at 37° C. Cells were washed twice with PBS, and lysed at 4° C. for 10 minutes with a lysis buffer containing 1% Triton X-100, and kinase, protease and phosphatase inhibitors as described (Frackelton, et al., J. Biol. Chem., 259:7909 (1984)). After centrifugation at 10,000× g for 15 minutes at 4° C., tyrosinephosphorylated proteins were isolated from supernatants by microbath affinity chromatography on the phosphotyrosine monoclonal antibody 1G2 (provided by Dr. A. R. Frakelton) as previously described (Frackelton, et al., J. Biol Chem., 259:7909 (1984); and Beitz, et al., Proc. Natl. Acad. Sci. USA, 88:2021 (1991)), eluted with 1 mM phenylphosphate in PBS pH 7.4, and purified further by immunoprecipitation with p185^erbB-2 monoclonal antibody Ab-3 (Oncogene Science) adsorbed on protein A-Sepharose. […]

[7] = system: EGFR; test: in vitro tyrosine phosphorylation assay in MDA-MB-468 cells; type: cell-based, human
Protocol: Cells were grown in 24-well plates (Costar) to 70% confluence in 5% FCS IMEM and serum-starved 24 hours prior to assays. Cells were then treated for 20 minutes at 37° C. with RL1 or RL2 with and without gp30 (at concentrations given below), as indicated on Figure panels, washed once with serum-free IMEM, and lysed at 4° C. for 10 minutes with a lysis buffer containing SDS (Emprotech). Total cellular proteins were subjected to 4-20% SDS-PAGE, and blotted onto Hybond-ECL membranes (Amersham). Membranes were blocked with tris-buffered saline [5% BSA, 0.5% Tween 20] and probed with 1 μg/ml phosphotyrosine monoclonal antibody (UBI) in tris-buffered saline [0.5% BSA, 0.5% Tween 20]. Immune complexes were detected using the ECL-western blotting kit (Amersham) as indicated by the manufacturer. Densitometric analyses were performed using a SAMBA 4000 system (Dynatech Laboratories). The values obtained were corrected for background and expressed as control percentages. Differences were considered significant when effects more than 10% versus controls occurred.
Upper panels correspond to MDA-MB-453 cells. […] Lower panels correspond to MDA-MB-468 cells. […] Lanes 1 to 4 correspond to increasing concentrations of RL2 (left panels), or RL1 (right panels) peptides. 1: 0.06 μM; 2: 0.6 μM; 3: 6 μM; 4: 60 μM. Experiments were repeated four times with similar results.
FIG. 6B: EGFR Tyrosine Phosphorylation assays were performed using MDA-MB-468 cells, as described for FIG. 3. […]
as §3

[8] = system: monoclonal antibody 4D5; test: binding of iodinated RL2 to a 4D5 affinity column
Protocol: First, RL2 peptide was iodinated using Iodogen, and purified with high-pressure liquid chromatography (HPLC); the specific activity was 26,000 cpm/μg peptide. […] 3×10^6 cpm of iodinated RL2 were loaded onto a protein A-sepharose column coupled with 4D5 (coupling percentage: 98.5%). Elutions were performed with increasing concentrations of MgCl2 from 1 to 5M (see Table 1). The specific elution marked as * on Table I was obtained at 2M MgCl2. The flow-through contained only background levels of radioactivity.

[9] = system: p185^erbB-2; test: p185^erbB-2 binding competition assay with iodinated 4D5 on SK-Br-3 cells; set-up: species or system human; settings: 1 nM iodinated 4D5, 3 hours at 4° C., read-out: B/T 50, displacement of the binding of iodinated 4D5 to SK-Br-3
Protocol: SK-Br-3 cells were placed in 48-well plates (Costar) in 5% fetal calf serum (FCS), IMEM (Biofluids).Cells were washed and incubated for 30 minutes at 37° C. with binding buffer [1 mg/ml BSA, 10 mM Hepes, 20 mM glutamine, DMEM-F12 pH 7.4]. Binding studies were performed for 3 hours at 4° C. On SK-Br-3 cells, 1 nM iodinated 4D5 was incubated with various concentrations of P1 (.largecircle.), P2 (.circle-solid.), P3 (Δ), P4 (.tangle-solidup.), RL1 (.quadrature.), and RL2 (.box-solid.) unlabeled peptides (A), or with unlabeled 4D5 (B). After incubation, cells were washed three times with binding buffer, and solubilized with 1% SDS. Unspecific binding of iodinated 4D5 was determined with an excess (100 nM) of unlabeled 4D5. Each group was assayed in triplicate. Experiments were performed three times with similar results.
as §1, with “Calif. […]” for “Calif.”

| radioactivity, flow through ([8]; input 3 × 10^6 cpm iodinated RL2, flow through) | radioactivity, wash ([8]; input 3 × 10^6 cpm iodinated RL2, wash) | IC50 [9] [µM] | Substance | response of MDA-MB-468 cell anchorage-independent growth [1] | effect on binding of iodinated EGF to the EGFR [2] | inhibition of MDA-MB-453 cell anchorage-independent growth ([3]; 6-60 μM) [%] | Number of Colonies (± SD) ([3]; 6 μM) | Number of Colonies (± SD) ([3]; 60 μM) | inhibiting effects on anchorage-independent growth of SK-Br-3 cells in presence of gp30 or p75 [4] | inhibition of gp30-stimulated level of p185^erbB-2 tyrosine phosphorylation [5] [%] | decrease of p185^erbB-2 tyrosine level of phosphorylation, presence of gp30-stimulation ([6]; 60 μM RL2, 50×10^-12 M gp30) [%] | decrease of p185^erbB-2 tyrosine level of phosphorylation, absence of gp30-stimulation ([6]; 60 μM RL2, [32P]-orthophosphate labelling) [%] | inhibition of gp30-stimulated level of EGFR tyrosine phosphorylation ([7]; 60 μM, gp30 50 pM) | inhibition of baseline level of EGFR tyrosine phosphorylation ([7]; 60 μM, no gp30) [%] | effect on EGF-induced tyrosine phosphorylation of EGFR ([7]; EGF 1.68 nM, peptide 0.6, 6 and 60 μM) | binding of iodinated peptide to 4D5-affinity column ([8]; protein A-sepharose column coupled with 4D5) |
| --- | --- | --- | --- | --- | --- | --- | --- | --- | --- | --- | --- | --- | --- | --- | --- | --- |
|  |  |  | EGF: epidermal growth factor, positive control | did respond |  |  |  |  |  |  |  |  |  |  |  |  |
| 2.6 × 10^5 cpm | 2.54 × 10^5 cpm | 8 | LGLRSLRE [RL2] |  | absence of an effect | 72 | 245 ± 46 | 123 ± 21 | fully reversed | 80 | 26 | 50 | not the gp30-stimulated level | 71 | no effect | specifically bind to a 4D5-affinity column |
|  |  |  | p185^erbB-2 ECD: p185^erbB-2 extracellular domain (ECD), positive control |  |  |  |  |  | fully reversed |  |  |  |  |  |  |  |
